Reference: PubChem BioAssay AID248 (DTP/NCI, 2004)
“And” between values parts separate entries of the source, which are not always exact repeats. Equal values may be shown once. Inconclusive results and toxic doses are left out. No stated cut-off is given here; in the data, active means T/C of 150% or more; inactive means T/C below 125%.

Test system: L1210 leukemia ip in BDF1 mice, survival T/C
Assay: NCI In Vivo Anticancer Drug Screen. Data for tumor model L1210 Leukemia (intraperitoneal) in B6D2F1 (BDF1) mice
Settings: higher = longer survival
In short: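 Read-out is survival time, reported as the treated-group measurement over the vehicle-control measurement.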

[1] = endpoint: mean survival time, dose: 25.0 mg/kg/injection, schedule: Q01DX009 (ip), vehicle: Klucel (hydroxypropylcellulose) (HPC)
[2] = endpoint: mean survival time, dose: 100.0 mg/kg/injection, schedule: Q01DX009 (ip), vehicle: Klucel (hydroxypropylcellulose) (HPC)
[3] = endpoint: mean survival time, dose: 100.0 mg/kg/injection, schedule: Q04DX003 (ip), vehicle: Klucel (hydroxypropylcellulose) (HPC)
[4] = endpoint: mean survival time, dose: 200.0 mg/kg/injection, schedule: Q01DX009 (ip), vehicle: Klucel (hydroxypropylcellulose) (HPC)
[5] = endpoint: mean survival time, dose: 200.0 mg/kg/injection, schedule: Q04DX003 (ip), vehicle: Klucel (hydroxypropylcellulose) (HPC)
[6] = endpoint: mean survival time, dose: 400.0 mg/kg/injection, schedule: Q01DX009 (ip), vehicle: Klucel (hydroxypropylcellulose) (HPC)
[7] = endpoint: mean survival time, dose: 400.0 mg/kg/injection, schedule: Q04DX003 (ip), vehicle: Klucel (hydroxypropylcellulose) (HPC)

Measured: T/C

Cc1cc(N=Nc2cccc([N+](=O)[O-])c2)cc(C(=O)O)c1O
inactive: endpoint: mean survival time, dose: 6.25 mg/kg/injection, schedule: Q01DX001 (ip), vehicle: Klucel (hydroxypropylcellulose) (HPC) 102 % of control | endpoint: mean survival time, dose: 12.5 mg/kg/injection, schedule: Q01DX001 (ip), vehicle: Klucel (hydroxypropylcellulose) (HPC) 94 % of control | endpoint: mean survival time, dose: 25.0 mg/kg/injection, schedule: Q01DX001 (ip), vehicle: Klucel (hydroxypropylcellulose) (HPC) 89 % of control

CCN1CCN(Cc2ccccc2)C(CCl)C1 (stereo not given)
inactive: endpoint: mean survival time, dose: 12.5 mg/kg/injection, schedule: Q01DX009 (ip), vehicle: Klucel (hydroxypropylcellulose) (HPC) 96 % of control | endpoint: mean survival time, dose: 12.5 mg/kg/injection, schedule: Q04DX003 (ip), vehicle: Klucel (hydroxypropylcellulose) (HPC) 100 % of control | [1] 102 % of control | endpoint: mean survival time, dose: 25.0 mg/kg/injection, schedule: Q04DX003 (ip), vehicle: Klucel (hydroxypropylcellulose) (HPC) 96 % of control | endpoint: mean survival time, dose: 50.0 mg/kg/injection, schedule: Q04DX003 (ip), vehicle: Klucel (hydroxypropylcellulose) (HPC) 93 % of control

CC(=O)OC1CCC(NC(=O)NCCCl)CC1 (stereo not given)
inactive: endpoint: mean survival time, dose: 100.0 mg/kg/injection, schedule: Q01DX001 (ip), vehicle: other 96 % of control | endpoint: mean survival time, dose: 200.0 mg/kg/injection, schedule: Q01DX001 (ip), vehicle: other 98 % of control | endpoint: mean survival time, dose: 400.0 mg/kg/injection, schedule: Q01DX001 (ip), vehicle: other 88 % of control

CC(=O)N1Cc2nc(N)nc(N)c2C1
inactive: endpoint: mean survival time, dose: 100.0 mg/kg/injection, schedule: Q01DX001 (ip), vehicle: carboxymethylcellulose (CMC) 95 % of control | endpoint: mean survival time, dose: 200.0 mg/kg/injection, schedule: Q01DX001 (ip), vehicle: carboxymethylcellulose (CMC) 104 % of control | endpoint: mean survival time, dose: 400.0 mg/kg/injection, schedule: Q01DX001 (ip), vehicle: carboxymethylcellulose (CMC) 104 % of control

O=C(c1ccccc1)C1CCCCCC1
inactive: [2] 108 % of control | [3] 94 % of control | [4] 102 % of control | [5] 98 % of control | [6] 104 % of control | [7] 98 % of control

C=C(Br)CNC(=O)CCCl
inactive: endpoint: mean survival time, dose: 6.25 mg/kg/injection, schedule: Q01DX009 (ip), vehicle: other 109 % of control | endpoint: mean survival time, dose: 12.5 mg/kg/injection, schedule: Q01DX009 (ip), vehicle: other 98 % of control | endpoint: mean survival time, dose: 25.0 mg/kg/injection, schedule: Q01DX009 (ip), vehicle: other 102 % of control

CS(C)=O.CS(C)=O.[Cl][Sn]([Cl])([Cl])[Cl]
inactive: [1] 95 % of control | endpoint: mean survival time, dose: 50.0 mg/kg/injection, schedule: Q01DX009 (ip), vehicle: Klucel (hydroxypropylcellulose) (HPC) 90 % of control | [2] 106 % of control | [3] 95 % of control | endpoint: mean survival time, dose: 150.0 mg/kg/injection, schedule: Q01DX009 (ip), vehicle: Klucel (hydroxypropylcellulose) (HPC) 104 % of control

Cc1cccc(NC(=O)c2c(Br)c(Br)c(Br)c(Br)c2C(=O)O)c1C
inactive: [2] 100 % of control | [4] 103 % of control

CC(=O)OC1CSC1OC(C)=O (stereo not given)
inactive: endpoint: mean survival time, dose: 100.0 mg/kg/injection, schedule: Q01DX001 (ip), vehicle: saline with Tween-80 95 % of control | endpoint: mean survival time, dose: 200.0 mg/kg/injection, schedule: Q01DX001 (ip), vehicle: saline with Tween-80 93 % of control | endpoint: mean survival time, dose: 400.0 mg/kg/injection, schedule: Q01DX001 (ip), vehicle: saline with Tween-80 98 % of control

COC(=O)CN1C(c2ccccc2)=CS(=O)(=O)C=C1c1ccccc1
inactive: endpoint: mean survival time, dose: 100.0 mg/kg/injection, schedule: Q01DX001 (ip), vehicle: saline 101 % of control | endpoint: mean survival time, dose: 200.0 mg/kg/injection, schedule: Q01DX001 (ip), vehicle: saline 97 % of control | endpoint: mean survival time, dose: 400.0 mg/kg/injection, schedule: Q01DX001 (ip), vehicle: saline 93 % of control

C/C(O)=C/c1cc(N2CCCCC2)nc(=S)[nH]1
inactive: [3] 102 % of control | [5] 100 % of control | [7] 100 % of control

Cc1nc2nc(N)nc(N)c2nc1CNc1ccc(C(=O)NC(CCC(=O)O)C(=O)O)cc1 (stereo not given)
inactive: endpoint: median survival time, dose: 0.39 mg/kg/injection, schedule: Q01DX009 (ip), vehicle: other 100 % of control | endpoint: median survival time, dose: 0.65 mg/kg/injection, schedule: Q01DX009 (ip), vehicle: other 100 % of control | endpoint: median survival time, dose: 1.08 mg/kg/injection, schedule: Q01DX009 (ip), vehicle: other 100 % of control | endpoint: median survival time, dose: 1.8 mg/kg/injection, schedule: Q01DX009 (ip), vehicle: other 100 % of control | endpoint: median survival time, dose: 5.0 mg/kg/injection, schedule: Q01DX009 (ip), vehicle: other 100 % of control | endpoint: median survival time, dose: 14.0 mg/kg/injection, schedule: Q01DX009 (ip), vehicle: other 110 % of control | endpoint: median survival time, dose: 108.0 mg/kg/injection, schedule: Q01DX009 (ip), vehicle: other 100 % of control | endpoint: median survival time, dose: 180.0 mg/kg/injection, schedule: Q01DX009 (ip), vehicle: other 105 % of control | endpoint: median survival time, dose: 300.0 mg/kg/injection, schedule: Q01DX009 (ip), vehicle: other 105 % of control

CCCOP(=O)(OCCC)C(OC(=O)C(C)(C)Br)=C(C)C
inactive: endpoint: mean survival time, dose: 100.0 mg/kg/injection, schedule: Q04DX003 (ip), vehicle: saline with Tween-80 100 % of control | endpoint: mean survival time, dose: 200.0 mg/kg/injection, schedule: Q04DX003 (ip), vehicle: saline with Tween-80 100 % of control | endpoint: mean survival time, dose: 400.0 mg/kg/injection, schedule: Q04DX003 (ip), vehicle: saline with Tween-80 100 % of control

COc1cc([N+](=O)[O-])ccc1NC(=O)OCC(Cl)(Cl)Cl
inactive: endpoint: mean survival time, dose: 100.0 mg/kg/injection, schedule: Q01DX001 (ip), vehicle: Klucel (hydroxypropylcellulose) (HPC) 98 % of control | [2] 93 % of control and 92 % of control | endpoint: mean survival time, dose: 100.0 mg/kg/injection, schedule: Q04DX002 (ip), vehicle: Klucel (hydroxypropylcellulose) (HPC) 95 % of control and 102 % of control | [3] 99 % of control | endpoint: mean survival time, dose: 200.0 mg/kg/injection, schedule: Q01DX001 (ip), vehicle: Klucel (hydroxypropylcellulose) (HPC) 100 % of control | [4] 103 % of control and 92 % of control | endpoint: mean survival time, dose: 200.0 mg/kg/injection, schedule: Q04DX002 (ip), vehicle: Klucel (hydroxypropylcellulose) (HPC) 98 % of control and 111 % of control | [5] 94 % of control | endpoint: mean survival time, dose: 400.0 mg/kg/injection, schedule: Q01DX001 (ip), vehicle: Klucel (hydroxypropylcellulose) (HPC) 96 % of control | [6] 109 % of control and 88 % of control | endpoint: mean survival time, dose: 400.0 mg/kg/injection, schedule: Q04DX002 (ip), vehicle: Klucel (hydroxypropylcellulose) (HPC) 95 % of control and 98 % of control | [7] 105 % of control

CCOC(=O)c1[nH]c(-c2ccccc2)nc1/N=N/N(C)C
inactive: endpoint: median survival time, dose: 25.0 mg/kg/injection, schedule: Q01DX009 (ip), vehicle: Klucel (hydroxypropylcellulose) (HPC) 122 % of control | endpoint: median survival time, dose: 200.0 mg/kg/injection, schedule: Q01DX009 (ip), vehicle: Klucel (hydroxypropylcellulose) (HPC) 111 % of control
